From ChEMBL document CHEMBL1146573, “Antioxidant activity of a new capsaicin derivative from Capsicum annuum” (J Nat Prod, 2003)

Test: Antioxidant activity in egg yolk liposomes assessed as inhibition of ADP/Fe(2+)-induced lipid peroxidation after 15 mins by TBARS method
Format: functional

Compound	IC50 [µM]
COc1cc(CNC(=O)CCCC/C=C/C(C)C)cc(-c2cc(CNC(=O)CCCCCCC(C)C)cc(OC)c2O)c1O	> 10
Cc1c(C)c2c(c(C)c1O)CC[C@@](C)(CCC[C@H](C)CCC[C@H](C)CCCC(C)C)O2 [ALPHA-TOCOPHEROL]	250
